{"source": "patent US20050063956A1", "about": "“Method and device for attracting insects” (Colorado State University Research Foundation, priority 1998, published 2005)", "key": {"[1]": {"test_system": "western corn root worm larvae", "assay": "Glass bead Y-tube choice test, corn volatiles versus CO2 (Example 19)", "design": "species or system Diabrotica virgifera virgifera LeConte", "details": "in vivo", "procedure": "Bioassay Procedure. All bioassays were choice tests conducted using a vertical glass “Y” tube apparatus filled with 3-mm glass beads (Bernklau and Bjostad 1998) (FIG. 62). Volatile compounds were prepared in 35-ml polyethylene syringes (cat no. 106-0490, Sherwood Medical, St. Louis, Mo.) and a syringe pump (Sage Model 355, Fisher Scientific, Pittsburgh, Pa.) was used to provide, slow (1 ml per min) consistent delivery of the compounds into each choice arm of the bioassay apparatus. Twenty newly-hatched larvae (less than 12-hours-old) were used for each bioassay. Non-diapausing larvae were used for all experiments unless otherwise indicated below. For each choice test a minimum of 10 replicates were conducted.\nCorn Headspace Versus CO2. Using the glass bead bioassay (Bernklau and Bjostad 1998) the headspace over germinating corn seeds was tested in a choice test against a series of CO2 concentrations to determine if corn volatiles (including CO2) were more attractive to the larvae than CO2 alone. A 35-ml syringe was filled with the headspace over 3-day-old germinating corn seedlings by means of a 25-cm length of slender Teflon tubing inserted into a hole drilled into the cover of the tub containing the corn seedlings.\nThree different concentrations of CO2 were tested on the control side of the choice test. In the 1 st test, we used ambient room air on the control side, which contains a lower concentration of CO2 than the corn headspace (approximately 1.0 mmol/mol). In the 2nd test, we used GC-MS-SIM to match the CO2 concentration in the syringe on the control side to be equal to that measured in the syringe containing corn headspace. In the 3rd test, the syringe on the control side of the choice test contained a CO2 concentration twice that measured in the corn headspace. To prepare each of these control concentrations, a 2nd 35-ml polyethylene syringe was partially filled (approximately 5 ml) from a tank containing pure (100%) CO2 using a glass syringe. Headspace from a plastic tub containing only moist germination paper was drawn into the syringe to fill it, mixing the air and CO2 thoroughly at the same time. The gas mixtures in the polyethylene syringes were allowed to equilibrate for 15 minutes, and GC-MS-SIM was used to verify the CO2 concentrations in both syringes prior to each bioassay.\nCorn Headspace Versus CO2 with Diapausing Larvae. The larvae used in our studies were from a colony of nondiapausing western corn root worm that has been maintained in our laboratory since 1986. We wished to determine if diapausing western corn root worm larvae would respond differently to corn volatiles than the colony larvae. Using the same method described above, the headspace over germinating corn seeds was tested in a choice test against a series of CO2 concentrations with western corn root worm larvae from a diapausing strain.\nCorn Headspace-Coated Glass Beads versus CO2. In the previous experiments, corn volatiles were introduced into the bottom of the Y-tube and carried through the glass beads by the airstream from the syringe pump. We also tested the possibility that some volatile compounds may have been removed from the airstream by coating out on the glass beads on the bottom of the Y-tube where they would not be available for the larvae to detect at the choice point near the middle of the Y-tube. […]"}, "[2]": {"test_system": "neonate Western Corn root worm larvae", "assay": "Larval bioassay in soil tubs with granules", "design": "species or system Diabrotica species", "details": "in vivo", "procedure": "The bioassay comprises a laboratory test conducted in tubs (30×15×8 cm) filled with 3000 grams of soil. A single corn seed is placed 2 cm from one end of the tub. After the corn plant is 4 days old, 30 neonate Western Corn root worm larvae are introduced into the soil in the end of the tub opposite the corn seedings. Larvae are given 24 hours to attempt to locate and attack the corn plant. Larvae are recovered from the corn plant. For granule tests, a measured amount (0.25 gram of prepared granule is mixed into 1.0 kg. of soil (20% moisture). This soil is used to fill the center ⅓ of the bioassay tub."}, "[3]": {"test_system": "corn root worm neonate larvae", "assay": "Repellence test, larvae staying on paper (FIG. 78)", "type": "in vivo", "details": "in the presence of a feeding stimulus"}, "[4]": {"test_system": "Diabrotica larvae", "details": "Jewett and Bjostad (1996); cited from earlier work"}}}
{"compound": "COc1ccc2[nH]c(=O)oc2c1", "note": "[MBOA, 6-methoxy-2-benzoxazolinone]", "values": [{"measurement": "role in attraction of larvae to corn roots (conclusion)", "setting": "[1]", "result": "not involved in attraction of western corn root worm larvae"}]}
{"compound": "CN1COCN(Cc2cnc(Cl)s2)/C1=N\\[N+](=O)[O-]", "note": "[Thiamethoxam]", "values": [{"measurement": "effect on control of larvae provided by attractant granules", "setting": "[2]", "result": "greatly improved"}, {"measurement": "repellence to neonate larvae", "setting": "[3]", "result": "does not repel corn root worm neonate larvae"}]}
{"compound": "ClCCl", "note": "[dichloromethane]", "values": [{"measurement": "attractiveness to larvae", "setting": "[4]", "result": "attractive to Diabrotica larvae"}]}
{"compound": "CCCCC/C=C\\C/C=C\\CCCCCCCC(=O)O", "note": "[linoleic acid]", "values": [{"measurement": "role in attraction of larvae to corn roots (conclusion)", "setting": "[1]", "result": "not involved in attraction of western corn root worm larvae"}]}
{"compound": "CCCCCCCC/C=C\\CCCCCCCC(=O)O", "note": "[oleic acid]", "values": [{"measurement": "role in attraction of larvae to corn roots (conclusion)", "setting": "[1]", "result": "not involved in attraction of western corn root worm larvae"}]}
{"compound": "CCCCCCCCCCCCCCCCCC(=O)O", "note": "[stearic acid]", "values": [{"measurement": "role in attraction of larvae to corn roots (conclusion)", "setting": "[1]", "result": "not involved in attraction of western corn root worm larvae"}]}
